Experimental data as given in PubChem BioAssay AID2043 (NMMLSC, 2009).
Calls of active or inactive are those of the source. How the calls were made is not given here.

Target: GTPase HRas, activated mutant (human)
Assay: activated mutant Ras nucleotide binding blockade – biochemical, additional analogs, multiplex flow cytometry, Ki, SAR follow-up (AID 2043)
Settings: bead-based flow cytometry multiplex, fluorescent GTP binding; for Ki: measured here: Ki derived from EC50

EC50 | Ki | SMILES
inactive | 30 nM | CC(C(=O)O)c1cccc(C(=O)c2ccccc2)c1 (stereo unspecified)
inactive | 560 nM | O=C(C#Cc1ccccc1)c1ccccc1[N+](=O)[O-]
inactive | 1340 nM | O=C(C#Cc1ccccc1)c1ccc(F)cc1
